Assay results published in ChEMBL document CHEMBL4828735, “Discovery of N-((3S,4S)-4-(3,4-Difluorophenyl)piperidin-3-yl)-2-fluoro-4-(1-methyl-1H-pyrazol-5-yl)benzamide (Hu7691), a Potent and Selective Akt Inhibitor That Enables Decrease of Cutaneous Toxicity” (J Med Chem, 2021).
The source made the active and inactive calls. The rule behind the calls is not given here.

Experiments:
[1] = molecular target: RAC-alpha serine/threonine-protein kinase (Homo sapiens, UniProt P31749); assay: Inhibition of N-terminal GST-tagged human AKT1 (104 to 408 residues) expressed in baculovirus infected Sf21 cells incubated for 1 hr in presence of ATP by mobility shift assay
Sequence of RAC-alpha serine/threonine-protein kinase (P31749 whole entry, the tested form may be a part): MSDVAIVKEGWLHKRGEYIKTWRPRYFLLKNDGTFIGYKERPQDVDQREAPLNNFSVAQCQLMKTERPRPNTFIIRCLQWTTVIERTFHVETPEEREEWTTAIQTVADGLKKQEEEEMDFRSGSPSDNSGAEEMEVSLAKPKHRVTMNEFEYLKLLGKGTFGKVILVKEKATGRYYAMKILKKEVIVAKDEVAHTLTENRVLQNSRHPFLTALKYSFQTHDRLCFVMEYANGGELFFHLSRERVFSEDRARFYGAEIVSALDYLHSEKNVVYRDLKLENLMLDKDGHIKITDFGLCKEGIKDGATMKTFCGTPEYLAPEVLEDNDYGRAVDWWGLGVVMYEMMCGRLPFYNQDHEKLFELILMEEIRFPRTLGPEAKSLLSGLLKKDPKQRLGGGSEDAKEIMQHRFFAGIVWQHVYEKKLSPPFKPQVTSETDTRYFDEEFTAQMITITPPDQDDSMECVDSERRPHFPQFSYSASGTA

HaCaT = assay: Antiproliferative activity against human HaCaT cells assessed as inhibition of cell growth incubated for 72 hrs by SRB assay; type: cell-based
KHOS/NP = assay: Antiproliferative activity against human KHOS cells assessed as inhibition of cell growth incubated for 72 hrs by SRB assay; type: functional, cell-based
hERG (KCNH2) = hERG (KCNH2) (Homo sapiens, UniProt Q12809); assay: Inhibition of human ERG expressed in HEK293 cells at 3 uM by whole cell patch clamp method relative to control; type: cell-based; settings: HEK293 cells expressing hERG
Sequence of hERG (KCNH2) (Q12809 whole entry): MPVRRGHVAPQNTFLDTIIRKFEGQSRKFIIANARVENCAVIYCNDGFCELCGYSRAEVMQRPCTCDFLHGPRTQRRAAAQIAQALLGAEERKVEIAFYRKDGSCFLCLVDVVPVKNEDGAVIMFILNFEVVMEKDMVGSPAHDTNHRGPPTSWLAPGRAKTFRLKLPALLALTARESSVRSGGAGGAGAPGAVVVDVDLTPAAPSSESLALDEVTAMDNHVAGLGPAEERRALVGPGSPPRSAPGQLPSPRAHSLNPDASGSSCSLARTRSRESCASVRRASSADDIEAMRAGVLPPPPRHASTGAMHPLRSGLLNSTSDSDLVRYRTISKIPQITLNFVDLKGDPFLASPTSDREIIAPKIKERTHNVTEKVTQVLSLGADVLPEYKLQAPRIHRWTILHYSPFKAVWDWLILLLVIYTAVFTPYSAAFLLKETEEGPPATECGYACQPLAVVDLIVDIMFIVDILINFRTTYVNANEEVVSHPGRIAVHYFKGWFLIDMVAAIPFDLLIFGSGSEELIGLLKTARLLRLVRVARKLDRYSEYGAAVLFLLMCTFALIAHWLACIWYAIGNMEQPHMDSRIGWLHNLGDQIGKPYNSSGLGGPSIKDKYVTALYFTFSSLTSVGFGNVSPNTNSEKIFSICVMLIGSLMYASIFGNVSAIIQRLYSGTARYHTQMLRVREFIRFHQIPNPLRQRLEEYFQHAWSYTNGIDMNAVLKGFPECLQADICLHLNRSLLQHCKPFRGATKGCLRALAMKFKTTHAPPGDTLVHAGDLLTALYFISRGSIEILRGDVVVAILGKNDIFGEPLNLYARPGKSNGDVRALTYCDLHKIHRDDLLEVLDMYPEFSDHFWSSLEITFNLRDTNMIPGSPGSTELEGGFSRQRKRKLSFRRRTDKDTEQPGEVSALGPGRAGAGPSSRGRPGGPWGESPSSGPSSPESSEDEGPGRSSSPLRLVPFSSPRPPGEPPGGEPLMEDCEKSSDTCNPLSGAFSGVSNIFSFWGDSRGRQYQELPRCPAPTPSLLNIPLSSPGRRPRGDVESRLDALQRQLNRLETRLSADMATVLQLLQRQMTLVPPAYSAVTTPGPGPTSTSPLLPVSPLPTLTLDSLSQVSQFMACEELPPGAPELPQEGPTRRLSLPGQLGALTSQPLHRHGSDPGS

Homo sapiens = species: Homo sapiens; assay: Inhibition of PKG (unknown origin) at 0.5 uM
[2] = Inhibition of PKA (unknown origin); design: species or system Homo sapiens
[3] = molecular target: Ribosomal protein S6 kinase alpha-1 (Homo sapiens, UniProt Q15418); assay: Inhibition of RSK1 (unknown origin)
Sequence of Ribosomal protein S6 kinase alpha-1 (Q15418 whole entry): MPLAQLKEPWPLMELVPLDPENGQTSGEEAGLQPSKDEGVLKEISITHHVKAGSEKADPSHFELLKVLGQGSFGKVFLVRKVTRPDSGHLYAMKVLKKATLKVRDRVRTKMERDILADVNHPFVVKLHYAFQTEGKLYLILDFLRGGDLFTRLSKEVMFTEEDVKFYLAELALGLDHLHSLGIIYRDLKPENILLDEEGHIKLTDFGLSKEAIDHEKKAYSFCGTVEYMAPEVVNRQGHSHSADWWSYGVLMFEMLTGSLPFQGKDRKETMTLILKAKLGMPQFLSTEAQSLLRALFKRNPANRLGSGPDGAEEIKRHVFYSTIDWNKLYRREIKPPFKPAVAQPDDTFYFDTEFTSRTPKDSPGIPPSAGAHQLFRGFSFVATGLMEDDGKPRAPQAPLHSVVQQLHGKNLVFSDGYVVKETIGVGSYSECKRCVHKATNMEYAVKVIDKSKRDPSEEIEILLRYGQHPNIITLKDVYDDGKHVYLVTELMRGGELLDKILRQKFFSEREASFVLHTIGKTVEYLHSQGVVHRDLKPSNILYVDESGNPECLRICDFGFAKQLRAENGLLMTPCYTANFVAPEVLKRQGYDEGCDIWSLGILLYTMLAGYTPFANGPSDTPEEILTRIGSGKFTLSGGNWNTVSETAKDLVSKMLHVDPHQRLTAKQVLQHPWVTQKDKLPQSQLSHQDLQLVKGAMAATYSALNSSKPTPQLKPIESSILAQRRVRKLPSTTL

[4] = molecular target: Serine/threonine-protein kinase Sgk1 (Homo sapiens, UniProt O00141); assay: Inhibition of SGK (unknown origin)
Sequence of Serine/threonine-protein kinase Sgk1 (O00141 whole entry): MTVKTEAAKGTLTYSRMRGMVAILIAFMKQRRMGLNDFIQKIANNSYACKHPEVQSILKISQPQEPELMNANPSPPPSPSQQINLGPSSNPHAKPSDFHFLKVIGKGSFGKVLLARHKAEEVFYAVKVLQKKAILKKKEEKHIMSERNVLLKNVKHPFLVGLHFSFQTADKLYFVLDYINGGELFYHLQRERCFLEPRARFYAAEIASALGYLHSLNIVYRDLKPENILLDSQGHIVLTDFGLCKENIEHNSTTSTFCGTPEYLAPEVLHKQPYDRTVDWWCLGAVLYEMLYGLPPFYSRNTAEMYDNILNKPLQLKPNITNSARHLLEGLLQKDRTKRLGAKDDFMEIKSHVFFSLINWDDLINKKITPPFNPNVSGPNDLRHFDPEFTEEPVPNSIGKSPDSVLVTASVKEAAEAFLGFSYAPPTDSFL

[5] = molecular target: Ribosomal protein S6 kinase alpha-5 (Homo sapiens, UniProt O75582); assay: Inhibition of MSK1 (unknown origin)
Sequence of Ribosomal protein S6 kinase alpha-5 (O75582 whole entry): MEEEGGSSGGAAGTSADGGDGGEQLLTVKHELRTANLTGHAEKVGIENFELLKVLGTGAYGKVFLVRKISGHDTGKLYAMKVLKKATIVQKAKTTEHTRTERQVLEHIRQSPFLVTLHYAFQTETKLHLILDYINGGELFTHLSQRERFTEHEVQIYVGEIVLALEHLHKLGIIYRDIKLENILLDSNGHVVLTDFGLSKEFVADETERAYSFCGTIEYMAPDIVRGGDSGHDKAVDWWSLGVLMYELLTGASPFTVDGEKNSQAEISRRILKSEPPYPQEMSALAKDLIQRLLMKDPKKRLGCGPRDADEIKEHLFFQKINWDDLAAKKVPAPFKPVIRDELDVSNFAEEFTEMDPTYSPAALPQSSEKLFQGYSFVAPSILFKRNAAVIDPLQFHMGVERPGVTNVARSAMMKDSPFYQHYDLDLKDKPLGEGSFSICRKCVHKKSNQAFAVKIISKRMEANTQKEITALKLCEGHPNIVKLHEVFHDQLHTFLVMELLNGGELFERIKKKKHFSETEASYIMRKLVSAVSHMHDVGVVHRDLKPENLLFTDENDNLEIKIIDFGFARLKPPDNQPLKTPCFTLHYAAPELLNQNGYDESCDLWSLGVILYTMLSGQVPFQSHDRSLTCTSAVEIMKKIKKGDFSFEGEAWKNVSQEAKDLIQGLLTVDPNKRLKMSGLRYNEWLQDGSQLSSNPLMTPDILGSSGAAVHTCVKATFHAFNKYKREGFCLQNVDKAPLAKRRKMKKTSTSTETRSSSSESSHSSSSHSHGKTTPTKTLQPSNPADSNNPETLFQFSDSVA

[6] = molecular target: Tyrosine-protein kinase JAK2 (Homo sapiens, UniProt O60674); assay: Inhibition of JAK2 (unknown origin)
Sequence of Tyrosine-protein kinase JAK2 (O60674 whole entry): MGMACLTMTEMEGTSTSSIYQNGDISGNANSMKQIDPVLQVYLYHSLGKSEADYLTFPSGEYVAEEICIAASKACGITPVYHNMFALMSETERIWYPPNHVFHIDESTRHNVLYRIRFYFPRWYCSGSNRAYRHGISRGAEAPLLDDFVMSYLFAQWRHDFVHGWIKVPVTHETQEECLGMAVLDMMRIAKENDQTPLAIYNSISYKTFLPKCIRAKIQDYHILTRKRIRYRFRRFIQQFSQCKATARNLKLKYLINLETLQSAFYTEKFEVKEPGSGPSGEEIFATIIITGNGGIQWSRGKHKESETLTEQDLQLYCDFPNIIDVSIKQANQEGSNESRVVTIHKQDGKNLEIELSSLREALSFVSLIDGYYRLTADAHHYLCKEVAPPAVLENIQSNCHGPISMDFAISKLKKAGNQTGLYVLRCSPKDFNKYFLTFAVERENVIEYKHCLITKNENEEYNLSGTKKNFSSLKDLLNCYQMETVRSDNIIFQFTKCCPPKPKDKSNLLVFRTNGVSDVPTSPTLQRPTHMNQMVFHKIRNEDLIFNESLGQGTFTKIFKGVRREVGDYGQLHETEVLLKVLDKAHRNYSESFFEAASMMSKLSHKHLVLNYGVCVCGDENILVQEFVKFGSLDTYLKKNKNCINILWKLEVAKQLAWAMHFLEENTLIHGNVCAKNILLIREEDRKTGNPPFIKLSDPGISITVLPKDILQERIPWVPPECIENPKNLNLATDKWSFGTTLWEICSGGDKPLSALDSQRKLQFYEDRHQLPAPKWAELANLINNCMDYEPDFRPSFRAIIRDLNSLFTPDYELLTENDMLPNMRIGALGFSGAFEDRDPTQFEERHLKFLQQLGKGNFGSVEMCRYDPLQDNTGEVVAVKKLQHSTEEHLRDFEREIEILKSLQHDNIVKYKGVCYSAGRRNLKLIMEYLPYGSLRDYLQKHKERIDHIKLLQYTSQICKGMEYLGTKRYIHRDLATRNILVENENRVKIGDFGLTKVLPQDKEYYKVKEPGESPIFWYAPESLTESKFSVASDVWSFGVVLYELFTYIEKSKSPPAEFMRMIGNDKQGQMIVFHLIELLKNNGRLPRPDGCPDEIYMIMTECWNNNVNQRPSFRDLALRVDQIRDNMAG

[7] = Antiproliferative activity against human 95-D cells assessed as inhibition of cell growth incubated for 72 hrs by SRB method; type: functional, cell-based
SMMC-7721 = assay: Antiproliferative activity against human SMMC-7721 cells assessed as inhibition of cell growth incubated for 72 hrs by SRB method; type: functional, cell-based; settings: SMMC-7721, 72 h
Bel-7402 = assay: Antiproliferative activity against human Bel-7402 cells assessed as inhibition of cell growth incubated for 72 hrs by SRB method; type: functional, cell-based; settings: Bel-7402, 72 h
SK-OV-3 = assay: Antiproliferative activity against human SK-OV-3 cells assessed as inhibition of cell growth incubated for 72 hrs by SRB method; type: functional, cell-based; settings: SK-OV-3, 72 h
L02 = assay: Antiproliferative activity against human HL7702 cells assessed as inhibition of cell growth incubated for 72 hrs by SRB method; type: cell-based; settings: L02, 72 h
[8] = Antiproliferative activity against human HPDE6c7 cells assessed as inhibition of cell growth incubated for 72 hrs by SRB method; type: cell-based; settings: HPDE6c7, 72 h
Cytochrome P450 3A4 = Cytochrome P450 3A4 (Homo sapiens, UniProt P08684); assay: Inhibition of CYP3A4 (unknown origin); type: ADME
[9] = Microsomal stability in rat liver microsomes assessed as half life at 50 uM preincubated for 5 mins with NADPH followed by compound addition and measured upto 60 mins by LC-MS/MS analysis; type: ADME, Microsome
[10] = Microsomal stability in monkey liver microsomes assessed as intrinsic clearance at 50 uM preincubated for 5 mins with NADPH followed by compound addition and measured upto 60 mins by LC-MS/MS analysis; type: ADME, Macaca mulatta, Microsome; settings: rhesus monkey, read-out: CLH
[11] = Microsomal stability in dog liver microsomes assessed as intrinsic clearance at 50 uM preincubated for 5 mins with NADPH followed by compound addition and measured upto 60 mins by LC-MS/MS analysis; type: ADME, Canis lupus familiaris, Microsome; settings: read-out: CLH
[12] = Tmax in Sprague-Dawley rat at 15 mg/kg, ig measured upto 72 hrs by LC-MS/MS analysis; type: ADME, organism-based; settings: in vivo, po
[13] = Half life in Sprague-Dawley rat at 15 mg/kg, ig measured upto 72 hrs by LC-MS/MS analysis; type: ADME, organism-based; settings: in vivo, po
[14] = Cmax in Beagle dog at 20 mg/kg, ig measured upto 96 hrs by LC-MS/MS analysis; type: ADME, organism-based, Canis lupus familiaris; design: route […], dose 20 mg/kg, time <=96; settings: in vivo, po
[15] = AUC(0 to t) in Beagle dog at 20 mg/kg, ig measured upto 96 hrs by LC-MS/MS analysis; type: ADME, organism-based, Canis lupus familiaris; design: route […], dose 20 mg/kg, time <=96; settings: in vivo, po
[16] = AUC(0 to infinity) in Beagle dog at 20 mg/kg, ig measured upto 96 hrs by LC-MS/MS analysis; type: ADME, organism-based, Canis lupus familiaris; design: route […], dose 20 mg/kg, time <=96; settings: in vivo, po
[17] = Drug metabolism in po dosed Sprague-Dawley rat urine assessed as M1 metabolite formation measured upto 72 hrs by UPLC-TOF-MS/MS analysis; type: ADME, organism-based; settings: in vivo
[18] = Drug metabolism in po dosed Sprague-Dawley rat urine assessed as M2 metabolite formation measured upto 72 hrs by UPLC-TOF-MS/MS analysis; type: ADME, organism-based; settings: in vivo
[19] = Drug metabolism in po dosed Sprague-Dawley rat bile assessed as M4 metabolite formation measured upto 24 hrs by UPLC-TOF-MS/MS analysis; type: ADME, organism-based; settings: in vivo
[20] = Toxicity in mouse assessed as maximum toxicity dose; settings: in vivo
[21] = Toxicity in Sprague-Dawley rat assessed as increase in body weight at 75 mg/kg administered daily for 4 weeks; type: organism-based; settings: in vivo, 672 h
[22] = Toxicity in Sprague-Dawley rat assessed as change in cell population at 25 to 75 mg/kg administered daily for 4 weeks; type: organism-based; settings: in vivo, 672 h, dose 25-75 mg/kg
[23] = Toxicity in Sprague-Dawley rat assessed as change in biochemical parameters at 25 to 75 mg/kg administered daily for 4 weeks; type: organism-based; settings: in vivo, 672 h, dose 25-75 mg/kg
[24] = Toxicity in Sprague-Dawley rat assessed as effect on stomach at 25 to 75 mg/kg administered daily for 4 weeks by histopathological analysis; type: organism-based; settings: in vivo, 672 h, dose 25-75 mg/kg
[25] = Toxicity in Sprague-Dawley rat assessed as effect on jejunum at 25 to 75 mg/kg administered daily for 4 weeks by histopathological analysis; type: organism-based; settings: in vivo, 672 h, dose 25-75 mg/kg
[26] = Toxicity in Sprague-Dawley rat assessed as effect on thymus at 25 to 75 mg/kg administered daily for 4 weeks by histopathological analysis; type: organism-based; settings: in vivo, 672 h, dose 25-75 mg/kg
[27] = Toxicity in Sprague-Dawley rat assessed as effect on bone marrow at 25 to 75 mg/kg administered daily for 4 weeks by histopathological analysis; type: organism-based; settings: in vivo, 672 h, dose 25-75 mg/kg
[28] = Toxicity in BALB/c nude mouse xenografted with human KHOS cells assessed as change in body weight at 12.5 to 50 mg/kg, ig administered once daily for 22 days; type: organism-based; settings: in vivo, po, 528 h, dose 12.5-50 mg/kg, time 22 day
[29] = Toxicity in BALB/c nude mouse xenografted with human 786-0 cells assessed as mortality at 12.5 to 50 mg/kg, ig administered once daily for 22 days; type: organism-based; settings: in vivo, po, 528 h, dose 12.5-50 mg/kg, time 22 day

Cl.Cn1nccc1-c1ccc(C(=O)N[C@@H]2CNCC[C@H]2c2ccc(F)c(F)c2)c(F)c1 showed an IC50 [1] of 0.004 µM, an IC50 (HaCaT) of 15.2 µM and an IC50 (KHOS/NP) of 14.9 µM. For the same compound, the inhibition at 3 µM (hERG (KCNH2)) was 15.9%, the inhibition (Homo sapiens) was “Active” and the IC50 [2] was 0.011 µM. For the same compound, the IC50 [3] was 0.756 µM, the IC50 [4] was 1.01 µM and the IC50 [5] was greater than 10 µM. For the same compound, the IC50 [6] was greater than 10 µM, the IC50 [7] was 1.03 µM and the IC50 (SMMC-7721) was 19.8 µM. It also gave an IC50 (Bel-7402) of 26.6 µM, an IC50 (SK-OV-3) of 4.71 µM and an IC50 (L02) of 5.4 µM. For the same compound, the IC50 [8] was 16.1 µM, the IC50 (Cytochrome P450 3A4) was greater than 100 µM and the half-life at 50 µM [9] was 1.16 h. It also gave a microsomal CLint at 50 µM [10] of 13.6 µL/min/mg, a microsomal CLint at 50 µM [11] of 4.1 µL/min/mg and a Tmax [12] of 1.67 h. It also gave a half-life [13] of 8.68 h, a Cmax [14] of 906 ng/mL and an AUC(0-t) at 96 h [15] of 33300 ng·h/mL. The AUC(0-inf) [16] was 36300 ng·h/mL, the Drug metabolism [17] was “Metabolite_Detected” and the Drug metabolism [18] was “Metabolite_Detected”. The Drug metabolism [19] was “Metabolite_Detected”, the MTD [20] was 150 mg/kg and the Activity [21] was “Non-Toxic”. The Activity [22] was “Non-Toxic”, the Activity [23] was “Non-Toxic” and the Activity [24] was “Non-Toxic”. The Activity [25] was “Non-Toxic”, the Activity [26] was “Non-Toxic” and the Activity [27] was “Non-Toxic”. The Activity [28] was “Non-Toxic” and the Activity [29] was “Non-Toxic”.
